pIC50: −log10 of the molar value.
Tests used:
[1] = tested on: spontaneously hypertensive rats; assay: Antihypertensive effect after intravenous bolus injection, tail-cuff systolic blood pressure; format: in vivo; conditions: dose 10 mg/kg, reduction in systolic blood pressure from basal values, male spontaneously hypertensive rats
Protocol: Two male spontaneously hypertensive rats (body weight 400-440g) and in which hypertension was confirmed were used as test animals. These were obtained from Charles River Japan (Kanagawa, Japan) and were maintained in a pathogen free state until used.
An aqueous solution of the derivative prepared in Example 1 above in physiological saline containing 2.5% Nicolle TM and 2.5% ethanol was intravenously administered by bolus injection in a does of 1ml per 1 kg body weight. Systolic blood pressure (SBP) after administration was measured by an indirect (tail-cuff) method. The antihypertensive effect was shown as a reduction in blood pressure (mmHg) from the basal values.

[2] = tested on: spontaneously hypertensive rats; assay: Antihypertensive effect after oral administration, tail-cuff systolic blood pressure; format: in vivo; conditions: dose 6 mg/kg, reduction in systolic blood pressure from basal values, male spontaneously hypertensive rats; for dSBP (mmHg) 2hr: 2hr after administration; for dSBP (mmHg) 6hr: 6hr after administration
Protocol: Four male spontaneously hypertensive rats (body weight 400-440g) and in which hypertension was confirmed were used. These were obtained from Charles River Japan (Kanagawa, Japan and were maintained in a pathogen free state until used.
A 5% arabic gum aqueous suspension of each sample was administered orally in a dose of 1ml per kg body weight. Systolic blood pressure after administration was measured by an indirect (tail-cuff) method. Antihypertensive effect was shown as a reduction in blood pressure (mmHg) from the basal values.

[3] = tested on: platelet aggregation induced by a combination of ADP and serotonin; assay: Inhibition of the increased platelet aggregation caused by serotonin in platelet rich plasma; format: cell-based; conditions: Oryctolagus cuniculus; rabbit platelet rich plasma; ADP (1.5»M) and serotonin (5»M); 50% inhibition of the increased platelet aggregation caused by serotonin
Protocol: Blood was obtained from rabbit and was treated with 3.8% sodium citrate. Platelet rich plasma (PRP) was prepared by centrifugation at 1200 rpm for 10 min at room temperature. The platelet aggregation induced by adenosine diphosphate (ADP) (1.5»M) and by a combination of ADP (1.5»M) and serotonin (5»M) was measured. Then the concentration of piperidine derivative required to produce 50% inhibition of the increased platelet aggregation caused by serotonin compared with the control was calculated as IC50.

| Structure (SMILES) | dSBP (mmHg) 0.5hr ([1]; 0.5hr after administration) | dSBP (mmHg) 4hr ([1]; 4hr after administration) | dSBP (mmHg) 2hr [2] | dSBP (mmHg) 6hr [2] | pIC50 [3] |
| --- | --- | --- | --- | --- | --- |
| NS(=O)(=O)c1ccc(C=CCN2CCC(=C3c4ccccc4C=Cc4ccccc43)CC2)cc1 [Example 1, 1-(4-Aminosulfonylcinnamyl)-4-(5H-dibenzo[a,d]cyclohepten-5-ylidene)piperidine] | -83 mmHg | -95 mmHg | -37 mmHg | -48 mmHg | 6.70 |
| NS(=O)(=O)c1ccc(C=CCN2CCC(=C3c4ccccc4CSc4ccccc43)CC2)cc1 [Example 2, 11-[1-(4-Aminosulfonylcinnamyl)-4-piperidinylidene]-6,11-dihydrodibenzo[b,e]thiepin] | – | – | -31 mmHg | -43 mmHg | 6.60 |

Source: patent EP0530016B1, “Piperidine derivative and pharmaceutical composition containing it” (Ajinomoto Co., Inc., priority 1991, dated 1993)
